As a reminder, the IC50 is the point on the concentration scale where inhibition reaches its midpoint.

One test addresses NMDA receptors. As to the kind of experiment: [3H]CPP NMDA receptor binding assay. Particulars: for IC50: [3H]CPP displacement; for % Inhibition (10^-4 M): at 10^-4 M. As for the experimental part:
(§1) Thus, the compounds of Formula I were tested in vitro for their ability to block NMDA receptors in a binding assay with [^3 H]3-(2-carboxypiperazin-4-yl)propyl-1-phosphonic acid ([^3 H]CPP) carried out essentially by a method previously described by Murphy, D. E., et al, Journal of Pharmacology and Experimental Therapeutics, Volume 240, pp 778-784 (1987); and for their ability to inhibit glutamate-induced [Ca^++ ] influx (GCI) carried out essentially by a method previously described by Marcoux, F. W., et al, "Sigma and Phencyclidine like Compounds as Molecular Probes in Biology", pp 735-746, Domino, E. F. and J. N. Kamenka, eds., NPP Books, Ann Arbor, Michigan, 1988 and Choi, D. W., et al, Journal of Neuroscience, Volume 8, pp 185-196 (1988). The aforementioned lest methods are incorporated herein by reference.

The test system of test [1] is glutamate-induced [Ca^++ ] influx. The test can be described thus: Inhibition of glutamate-induced [Ca++] influx (GCI). It is filed as cell-based. Here is the method: as §1

Counter-ions that a name gives are not always drawn.

Molecule `O=C(O)CNCCC=CP(=O)(O)O` (mixture of isomers) [Example 10a, N-[4-Phosphono-3-butenyl)glycine, diammonium salt. (Mixture of E and Z isomers)] registered an IC50 at NMDA receptors of 2.45 µM.

`CC(NCC=CCP(=O)(O)O)C(=O)O.Cl` (racemic) [Example 8p, N-(4-Phosphono-2-butenyl)-DL-alanine, monohydrochloride]: in the test on NMDA receptors, the “% Inhibition (10^-4 M)” value was determined as 58%.

Consider `O=C(O)CNCc1cccc(CP(=O)(O)O)c1` [Example 8d, N-[[3-(Phosphonomethyl)phenyl]methyl]glycine, hydrochloride], for which the IC50 on NMDA receptors was determined as 2.24 µM; in test [1], 79 µM.

`O=C(O)CNCCc1cccc(CP(=O)(O)O)c1` [Example 8g, N-[2-[3-(Phosphonomethyl)phenyl]ethyl] glycine, monohydrochloride]: in the test on NMDA receptors, the “% Inhibition (10^-4 M)” value is on record as 86%.

As for `O=C(O)CNCc1ccc(CP(=O)(O)O)cc1` [Example 8h, N-[[4-(Phosphonomethyl)phenyl]methyl]glycine, monohydrochloride], the IC50 at NMDA receptors was determined as 5.2 µM; in test [1], 120 µM.

As to `O=C(O)CNCC=CCP(=O)(O)O` [Example 8o, N-(4-Phosphono-2-butenyl)glycine, monohydrochloride], the IC50 turned out to be 1.2 µM on NMDA receptors and 18 µM in test [1].

These data come from patent publication US5179085A, “N-substituted α-amino acids and derivatives thereof having pharmaceutical activity” (Warner-Lambert Company, priority 1991, dated 1993).
